Test results as given in PubChem BioAssay (NCI).
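Compound exposure: 48 hours, 5 concentrations, 96-well plates. At the GI50, growth is halved. TGI: concentration producing complete growth inhibition.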

What was measured:
Assay in all cases: inhibition of tumour cell growth, NCI panel, 48 h; in the data active means GI50 below about 0.43 µM; inactive means the rest
SNB-19 CNS = test system: SNB-19 CNS
HOP-92 NSCLC = test system: HOP-92 NSCLC
RPMI-8226 leukemia = test system: RPMI-8226 leukemia
HCC-2998 colon = test system: HCC-2998 colon
A549 NSCLC = test system: A549 NSCLC
SR leukemia = test system: SR leukemia
UO-31 renal = test system: UO-31 renal
OVCAR-4 ovarian = test system: OVCAR-4 ovarian
SK-MEL-5 melanoma = test system: SK-MEL-5 melanoma
T-47D breast = test system: T-47D breast

O=C(O)C(CP(=O)(O)O)=C(Cl)Cl
> 100 µM: TGI (SNB-19 CNS) | TGI (HOP-92 NSCLC) | TGI (RPMI-8226 leukemia) | TGI (HCC-2998 colon) | TGI (A549 NSCLC) | TGI (SR leukemia) | TGI (UO-31 renal)

CC(=O)[CH-]C(=O)c1ccccc1.CC(=O)[CH-]C(=O)c1ccccc1.CC[O-].CC[O-].[Zr+4]
inactive: GI50 (SNB-19 CNS) > 100 µM | GI50 (OVCAR-4 ovarian) > 100 µM | GI50 (RPMI-8226 leukemia) > 100 µM | GI50 (HCC-2998 colon) > 100 µM | GI50 (A549 NSCLC) > 100 µM | GI50 (UO-31 renal) > 100 µM | GI50 (SK-MEL-5 melanoma) > 100 µM
> 100 µM: TGI (SNB-19 CNS) | TGI (OVCAR-4 ovarian) | TGI (RPMI-8226 leukemia) | TGI (HCC-2998 colon) | TGI (A549 NSCLC) | TGI (UO-31 renal) | TGI (SK-MEL-5 melanoma)

COc1cc(/C=C2/C(=O)N(C(=O)OC(C)C)C(Cc3cc(OC)c(OC)c(C)c3OC)C(=O)N2Cc2ccccc2)c(OC)c(C)c1OC (stereo not given)
51.1 µM: TGI (SR leukemia)
> 100 µM: TGI (HOP-92 NSCLC) | TGI (OVCAR-4 ovarian) | TGI (RPMI-8226 leukemia) | TGI (HCC-2998 colon) | TGI (A549 NSCLC) | TGI (UO-31 renal) | TGI (SK-MEL-5 melanoma)

Cc1c(Cl)ccc2c1NC(=O)C2(O)C(C(=O)c1ccccc1)c1ccccc1 (stereo not given)
28.7 µM: TGI (OVCAR-4 ovarian)
69 µM: TGI (RPMI-8226 leukemia)
60 µM: TGI (SK-MEL-5 melanoma)
> 100 µM: TGI (SNB-19 CNS) | TGI (HCC-2998 colon) | TGI (A549 NSCLC) | TGI (UO-31 renal)
60.2 µM: TGI (SR leukemia)

COc1ccc(C(=O)C(c2ccc(OC)cc2)C2(O)C(=O)Nc3ccccc32)cc1 (stereo not given)
> 100 µM: TGI (SNB-19 CNS) | TGI (HOP-92 NSCLC) | TGI (RPMI-8226 leukemia) | TGI (A549 NSCLC) | TGI (SR leukemia) | TGI (UO-31 renal)

O=S1c2ccccc2N=C(c2ccc3ccccc3c2)CC1C1=CC=CCC1 (stereo not given)
36.9 µM: TGI (RPMI-8226 leukemia)
26.7 µM: TGI (UO-31 renal)
30.4 µM: TGI (SK-MEL-5 melanoma)
26.2 µM: TGI (HCC-2998 colon)
91.2 µM: TGI (A549 NSCLC)

COc1cc(/C=C2\[C@H]3c4c(c(OC)c(C)c(OC)c4OC)C[C@@H](C(=O)N2Cc2ccccc2)N3C(=O)OCC(C)C)c(OC)c(C)c1OC
> 100 µM: TGI (SNB-19 CNS) | TGI (HOP-92 NSCLC) | TGI (OVCAR-4 ovarian) | TGI (RPMI-8226 leukemia) | TGI (HCC-2998 colon) | TGI (A549 NSCLC) | TGI (SR leukemia) | TGI (UO-31 renal) | TGI (SK-MEL-5 melanoma)

Cc1cc(O)cc2oc(=O)c3c(O)cc(O)cc3c12
> 100 µM: TGI (OVCAR-4 ovarian) | TGI (SR leukemia) | TGI (UO-31 renal) | TGI (SK-MEL-5 melanoma)
40.8 µM: TGI (HCC-2998 colon)
76 µM: TGI (SNB-19 CNS)
76.3 µM: TGI (HOP-92 NSCLC)
86 µM: TGI (A549 NSCLC)

COc1cc(C2=NN(C)C(c3ccc([N+](=O)[O-])o3)C2)cc(OC)c1OC (stereo not given)
31.8 µM: TGI (RPMI-8226 leukemia)
38.6 µM: TGI (SR leukemia)
> 100 µM: TGI (SNB-19 CNS) | TGI (HOP-92 NSCLC) | TGI (OVCAR-4 ovarian) | TGI (HCC-2998 colon) | TGI (A549 NSCLC) | TGI (UO-31 renal) | TGI (SK-MEL-5 melanoma)

CN(C)CCNC(=O)c1cc2ccccc2c2nc3ccccc3nc12
5.5 µM: TGI (SK-MEL-5 melanoma)
2.34 µM: TGI (OVCAR-4 ovarian)
3.42 µM: TGI (RPMI-8226 leukemia)
8.2 µM: TGI (SNB-19 CNS)
> 44.4 µM: TGI (A549 NSCLC)
3.68 µM: TGI (SR leukemia)
3.92 µM: TGI (HCC-2998 colon)

Cc1cc(NS(=O)(=O)c2ccc(N=Nc3cc(N=Nc4ccc(S(=O)(=O)Nc5cc(C)nc(C)n5)cc4)c4c(NC(=O)C(Cl)Cl)cccc4c3OC(=O)C(Cl)Cl)cc2)nc(C)n1 (tested in a mixture with another compound)
94.8 µM: TGI (SR leukemia)
10.5 µM: TGI (SK-MEL-5 melanoma)
33.6 µM: TGI (SNB-19 CNS)
37.4 µM: TGI (UO-31 renal)
> 100 µM: TGI (A549 NSCLC)
35.8 µM: TGI (HCC-2998 colon)
59.2 µM: TGI (HOP-92 NSCLC)
43.7 µM: TGI (OVCAR-4 ovarian)

COc1ccc2c(=O)c(C)c(-c3ccccc3)oc2c1CN(C)C
> 100 µM: TGI (SNB-19 CNS) | TGI (HOP-92 NSCLC) | TGI (OVCAR-4 ovarian) | TGI (RPMI-8226 leukemia) | TGI (HCC-2998 colon) | TGI (A549 NSCLC) | TGI (SR leukemia) | TGI (UO-31 renal) | TGI (SK-MEL-5 melanoma)

CC1=C(C(=O)Nc2ccc(F)c(Cl)c2)C(c2ccccc2Cl)NC(=S)N1 (stereo not given)
> 50 µM: TGI (SNB-19 CNS) | TGI (HOP-92 NSCLC) | TGI (RPMI-8226 leukemia) | TGI (T-47D breast) | TGI (A549 NSCLC) | TGI (SR leukemia) | TGI (UO-31 renal) | TGI (SK-MEL-5 melanoma)
inactive: GI50 (SNB-19 CNS) 40 µM | GI50 (HOP-92 NSCLC) > 50 µM | GI50 (RPMI-8226 leukemia) 38.3 µM | GI50 (T-47D breast) > 50 µM | GI50 (A549 NSCLC) 24.8 µM | GI50 (SR leukemia) 23.1 µM | GI50 (UO-31 renal) 21.3 µM | GI50 (SK-MEL-5 melanoma) 12.4 µM

C=C1C(=O)O[C@H]2[C@H]1CC/C(COC(=O)CCCCC(=O)OC/C1=C/CC[C@@]3(C)O[C@H]3[C@H]3OC(=O)C(=C)[C@@H]3CC1)=C\CC[C@@]1(C)O[C@@H]21
5.59 µM: TGI (RPMI-8226 leukemia)
4.57 µM: TGI (UO-31 renal)
inactive: GI50 (SNB-19 CNS) 5.99 µM | GI50 (HOP-92 NSCLC) 1.64 µM | GI50 (OVCAR-4 ovarian) 3.01 µM | GI50 (RPMI-8226 leukemia) 1.81 µM | GI50 (HCC-2998 colon) 2.09 µM | GI50 (A549 NSCLC) 58.2 µM | GI50 (SR leukemia) 0.584 µM | GI50 (UO-31 renal) 1.41 µM | GI50 (SK-MEL-5 melanoma) 2.6 µM
3.94 µM: TGI (HCC-2998 colon)
7.73 µM: TGI (SK-MEL-5 melanoma)
> 100 µM: TGI (SNB-19 CNS) | TGI (OVCAR-4 ovarian) | TGI (A549 NSCLC) | TGI (SR leukemia)
4.56 µM: TGI (HOP-92 NSCLC)

CCOC(=O)C12CCCC1(O)N(NC(=O)c1ccccc1)C(C)=C2C(=O)OC (stereo not given)
> 100 µM: TGI (SNB-19 CNS) | TGI (HOP-92 NSCLC) | TGI (OVCAR-4 ovarian) | TGI (RPMI-8226 leukemia) | TGI (HCC-2998 colon) | TGI (A549 NSCLC) | TGI (UO-31 renal)

C/C(=C\C(C)COCc1ccccc1)[C@H](COCc1ccccc1)OCc1ccccc1 (stereo not given in full)
> 100 µM: TGI (SNB-19 CNS) | TGI (HOP-92 NSCLC) | TGI (OVCAR-4 ovarian) | TGI (RPMI-8226 leukemia) | TGI (HCC-2998 colon) | TGI (A549 NSCLC) | TGI (UO-31 renal) | TGI (SK-MEL-5 melanoma)

Cc1ccc(NC(=O)C(=O)C2C(=O)N(c3ccccc3)N=C2N)cc1C (stereo not given)
> 100 µM: TGI (SNB-19 CNS) | TGI (HOP-92 NSCLC) | TGI (OVCAR-4 ovarian) | TGI (RPMI-8226 leukemia) | TGI (HCC-2998 colon) | TGI (A549 NSCLC) | TGI (SR leukemia) | TGI (UO-31 renal) | TGI (SK-MEL-5 melanoma)

c1ccc(Cn2cc3c(c2-c2ccccc2)CCc2cnoc2-3)cc1
> 100 µM: TGI (SNB-19 CNS) | TGI (HOP-92 NSCLC) | TGI (OVCAR-4 ovarian) | TGI (RPMI-8226 leukemia) | TGI (T-47D breast) | TGI (A549 NSCLC) | TGI (UO-31 renal)
9.28 µM: TGI (SR leukemia)
12.8 µM: TGI (SK-MEL-5 melanoma)
inactive: GI50 (SNB-19 CNS) 4.24 µM | GI50 (HOP-92 NSCLC) 18 µM | GI50 (OVCAR-4 ovarian) 10.7 µM | GI50 (RPMI-8226 leukemia) 3.1 µM | GI50 (T-47D breast) 4.5 µM | GI50 (A549 NSCLC) 5.73 µM | GI50 (SR leukemia) 1.96 µM | GI50 (UO-31 renal) 7.65 µM | GI50 (SK-MEL-5 melanoma) 2.79 µM

O=S(=O)(/C=C/c1ccc(Cl)cc1Cl)Cc1ccccc1CS(=O)(=O)/C=C/c1ccc(Cl)cc1Cl
> 100 µM: TGI (SNB-19 CNS) | TGI (HOP-92 NSCLC) | TGI (OVCAR-4 ovarian) | TGI (RPMI-8226 leukemia) | TGI (HCC-2998 colon) | TGI (A549 NSCLC) | TGI (SR leukemia) | TGI (UO-31 renal)

CC1=NN(c2ccccc2)C(=O)C1N=Nc1ccc([As](=O)(O)O)c(O)c1 (stereo not given)
> 100 µM: TGI (SNB-19 CNS) | TGI (HOP-92 NSCLC) | TGI (OVCAR-4 ovarian) | TGI (RPMI-8226 leukemia) | TGI (T-47D breast) | TGI (A549 NSCLC) | TGI (SR leukemia) | TGI (UO-31 renal) | TGI (SK-MEL-5 melanoma)

CCOC(C)C(/C=N/NC(N)=S)=NNC(N)=S (stereo not given)
> 100 µM: TGI (SNB-19 CNS) | TGI (HOP-92 NSCLC) | TGI (OVCAR-4 ovarian) | TGI (RPMI-8226 leukemia) | TGI (HCC-2998 colon) | TGI (A549 NSCLC) | TGI (SR leukemia) | TGI (SK-MEL-5 melanoma)
> 77.2 µM: TGI (UO-31 renal)
